Where a SMILES comes first, the peptide text is derived from it. The star is where a group is joined. Cbz = O=C(OCc1ccccc1)*; CH2F = FC*
Legend:
HT 22 cells = assay: TNF-α and z-VAD-induced necroptosis, Alamar blue; assay type: cell-based; conditions: 1 ng/ml TNF-α with 50 μM z-VAD
Method: (§1) Graphs represent mean±s.e.m. ***P<0.0005, two-way ANOVA followed by Tukey's post hoc test (n=3). A PARP inhibitor, ABT-888 is used for the positive control. FIGS. 12B and 12C show in vitro oxidoreductase and tautomerase activity of MIF/PAAN with compound 41, 56, 76, or 77. FIGS. 12D and 12E show Alamar blue cell viability assay from SH-SY5Y cells pre-incubated with compound 41, 56, 76, or 77 in response to 0.5 μM staurosporine (STS) or from HT 22 cells incubated with 1 ng/ml of TNF-α with 50 μM z-VAD. A pan caspase inhibitor, z-VAD or necrostatin (Nec-1) is used for the positive control and PARP inhibitor, ABT-888 is used for negative control. Bars represent mean±s.e.m. ***P<0.0005, two-way ANOVA followed by Tukey's post hoc test (n=3). […] Bars represent mean±s.e.m. **P<0.005, ***P<0.0005, two-way ANOVA followed by Tukey's post hoc test (n=3).
(§2) FIGS. 14A-14G show the characterization of compound 121. […] Bars represent means±s.e.m. ***P<0.0005, two-way ANOVA followed by Tukey's post hoc test (n=4). […] Bars represent mean±s.e.m. ***P<0.0005, two-way ANOVA followed by Tukey's post hoc test (n=4). […] Bars represent means±s.e.m. **P<0.005, ***P<0.0005, one-way ANOVA followed by Tukey's post hoc test (n=3). […] Bar represent mean±s.e.m. ***P<0.0005, one-way ANOVA followed by Tukey's post hoc test (n=3). […] Quantification of inhibition of PARP-1 activity by compound 56, compound 121 and ABT-888 is shown. Graphs represent mean±s.e.m. ***P<0.0005, two-way ANOVA followed by Tukey's post hoc test (n=3). FIGS. 14F and 14G show Alamar blue cell viability assay from SH-SY5Y cells pre-incubated with either compound 56 or 121 in response to (14F) 0.5 μM staurosporine (STS) or (14G) from HT 22 cells incubated with 1 ng/ml of TNF-α with 50 μM z-VAD. Bars represent mean±s.e.m. ***P<0.0005, two-way ANOVA followed by Tukey's post hoc test (n=5).
(§3) Cell death and viability assessment. Primary cultured cortical neurons were treated with 5 μg/ml of α-syn PFF for 14 days and cell death was determined by staining of all nuclei with 7 μM Hoechst 33342 and dead cell nuclei with 2 μM propidium iodide (PI) (Invitrogen). The numbers of total and dead cells were counted with the Axiovision 4.6 software (Carl Zeiss). Cell viability was determined by fluorescence at an excitation wavelength 570 nm and an emission wavelength 585 nm using Alamar Blue (Invitrogen).

SH-SY5Y cells [1] = assay: Staurosporine (STS)-induced apoptotic cell death, Alamar blue; assay type: cell-based; conditions: 0.5 μM STS
Method: as §1, §2, §3

cortical neurons = assay: Nuclear translocation of AIF and PAAN/MIF after α-syn PFF treatment in cortical neurons (subcellular fractionation); assay type: cell-based, mouse; conditions: primary neuronal cultures
Description: FIGS. 3A-3H show PAAN/MIF nuclease activity is required for prevention of α-syn PFF-induced neurotoxicity in neurons. […] See Donawho, et al. (2007) Clin. Cancer Res. 13:2728-37. Intensity of PAAN/MIF and AIF signal is shown in the graph. **P<0.005 versus the PBS control group in the nuclear (N) fraction, two-way ANOVA followed by Tukey's post hoc test. […] Intensity of AIF-bound PAAN/MIF is shown in the graph. *P<0.05, student's t-test. […] Scale bars, 20 μm. The white color in the merged images indicates the overlay of AIF, PAAN/MIF and Hoechst dye in the nucleus. The percentage of cells with nuclear localization of PAAN/MIF and AIF is shown in the graph. ***P<0.0005, student's t-test. […] Intensity of noncleaved genomic DNA is shown in the graph. ***P<0.0005, two-way ANOVA. […] Scale bar, 20 μm. […] Bars represent mean±s.e.m. ***P<0.0005, two-way ANOVA followed by Tukey's post hoc test (n=3). […] Bars represent mean±s.e.m. ***P<0.0005, two-way ANOVA followed by Tukey's post hoc test (n=5). […]
Subcellular fractionation. Subcellular fraction and quantification of relative levels of AIF and PAAN/MIF were performed as previously described. […] Each fractions were monitored by PARP-1 antibody (BD) for the nuclear fraction and HSP60 antibody (cell signaling) for the postnuclear fraction.

SH-SY5Y cells [2] = assay: MNNG-induced parthanatic cell death in SH-SY5Y cells (Alamar blue cell viability); assay type: cell-based; conditions: 50 μM MNNG for 15 min, viability after 24 h
Description: We developed an assay to screen for PAAN/MIF nuclease inhibitors. Single-stranded PAAN/MIF nuclease DNA substrate (FIG. 10A) was amine modified on the 5′ end and immobilized on a plate. Hybridization with a biotin-labeled complementary oligonucleotide followed by addition of streptavidin conjugated horseradish peroxidase enzyme (HRP) leads to retention of HRP on the surface within each well in the presence of intact PAAN/MIF nuclease DNA substrate, which can be quantitatively detected through colorimetric change at 450 nm using the HRP substrate 3,3′,5,5′-tetramethylbenzidine (TMB). In the presence of WT PAAN/MIF, there is reduced signal, indicative of cleavage of the PAAN/MIF nuclease substrate, while the signal is not attenuated without recombinant PAAN/MIF (FIGS. 1 and 10B). […] Thus, the rapafucin library containing 45,000 macrocyclic compounds in 3,000 pools of 15 compounds was screened using this assay. […] Several pools were identified that inhibit PAAN/MIF nuclease activity from the primary screen (FIG. 4A). […] Nine pools of compounds were identified that both inhibit PAAN/MIF cleavage of the substrate and protect against MNNG-induced parthanatic cell death by greater than 70% (FIG. 10D). […] Next, the 90 individual compounds in the 6 pools were synthesized and further assessed for inhibition of PAAN/MIF nuclease activity and MNNG-induced parthanatic cell death. Among them 12 compounds (compounds 16-18, 26-28, 41, 56, 66, 67, 76, and 77) were identified that block MIF nuclease activity and MNNG-induced parthanatic cell death by greater than 60% (FIG. 10F). Dose dependence (0.1 to 1.0 μM) were assessed for the 12 compounds against MNNG-induced parthanatic cell death (FIG. 11A and Table 2) and inhibition of PAAN MIF nuclease activity against the RF (FIG. 111B) and PS30 substrates (FIG. 11C).
Cell culture, transfection, primary neuronal culture and treatment. SH-SY5Y cells (ATCC) were cultured in DMEM containing 10% fetal bovine serum and penicillin/streptomycin at 37° C. under 5% C02. The cells were transfected using PolyFect reagent (Qiagen). Parthanatos was induced by the treatment of 50 μM MNNG for 15 min in SH-SY5Y cells. ABT-888 or PAAN/MIF inhibitors were pretreated with indicated concentration 1 h before MNNG treatment and cell death were assessed after 24 h. Primary cortical neurons from WT, PAAN/MIF KO, E22Q KI or P1G KI embryos were prepared as previously described See Kam et al. (2018) Science 362:eaat8407. Briefly, the cortex was dissected and cultured at embryonic day 16 in neurobasal media supplemented with B-27, 0.5 mM L-glutamine, penicillin and streptomycin (Invitrogen). Primary neurons were infected with AAV2-control, AAV2-PAAN/MIF WT, AAV2-PAAN/MIF E22Q, AAV2-PAAN/MIF E22A or AAV2-MIF P1G (ViGene Biosciences) at days in vitro (DIV) 4-5. ABT-888 or PAAN/MIF inhibitors were applied to neurons 1 h before α-syn PFF treatment. The neuron growth medium was replaced with fresh medium alone or including inhibitors every 3-4 days. α-syn PFF was added at DIV 7 and further incubated for indicated times followed by the cell death assay or biochemical experiments.
as §3, with “Blue (Invitrogen). […]” for “Blue (Invitrogen).”

| Compound | TNFα and Z-VAD-induced necroptosis (HT 22 cells) | staurosporine (STS)-induced apoptotic cell death (SH-SY5Y cells [1]) | α-syn PFF-induced nuclear translocation of PAAN/MIF and AIF (cortical neurons) | inhibition of MNNG-induced parthanatic cell death (SH-SY5Y cells [2]) |
| --- | --- | --- | --- | --- |
| C[C@]1(c2nc3c(C(N)=O)cccc3[nH]2)CCCN1 [ABT-888, reference compound] | not prevented | do not inhibit | attenuated |  |
| C=CC[C@@H]1/C=C(\C)C[C@H](C)C[C@H](OC)[C@H]2O[C@@](O)(C(=O)C(=O)N3CCCC[C@H]3C(=O)O[C@H](/C(C)=C/[C@@H]3CC[C@@H](O)[C@H](OC)C3)[C@H](C)[C@@H](O)CC1=O)[C@H](C)C[C@@H]2OC [FK506, reference compound] |  |  |  | failed to inhibit |
| CN1C(=O)C(Cc2c[nH]c3ccccc23)NC1=S (stereo not shown) [Nec-1, necrostatin, reference compound] | prevents |  |  |  |
| CC(NC(=O)C(NC(=O)OCc1ccccc1)C(C)C)C(=O)NC(CC(=O)O)C(=O)CF (stereo not drawn) [Z-VAD, reference compound] (Cbz-Val-Ala-Asp-CH2F; configuration not given here) |  | prevents |  |  |
| CO[C@H]1C[C@@H]2CC[C@@H](C)[C@@](O)(O2)C(=O)C(=O)N2CCCC[C@H]2C(=O)O[C@H]([C@H](C)C[C@@H]2CC[C@@H](O)[C@H](OC)C2)CC(=O)[C@H](C)/C=C(\C)[C@@H](O)[C@@H](OC)C(=O)[C@H](C)C[C@H](C)/C=C/C=C/C=C/1C [rapamycin, reference compound] |  |  |  | failed to inhibit |

From patent US20220372014A1, “NEUROPROTECTIVE COMPOUNDS AND METHODS OF USE THEREOF” (The Johns Hopkins University, priority 2019, published 2022)
